The values that follow come from patent US20080227797A1, “Pyridopyrimidine Derivatives as Pde4 Inhibitors for the Treatment of Inflammatory and Immune Diseases” (ASTRAZENECA AB, priority 2005, published 2008).

As a reminder, the IC50 is the concentration that inhibits the measured activity by half.

The structures appear in SMILES notation.

Chain of recombinant Human Phosphodiesterase B2 (PDE4B2) (Q07343 1-564 isoform Q07343-2): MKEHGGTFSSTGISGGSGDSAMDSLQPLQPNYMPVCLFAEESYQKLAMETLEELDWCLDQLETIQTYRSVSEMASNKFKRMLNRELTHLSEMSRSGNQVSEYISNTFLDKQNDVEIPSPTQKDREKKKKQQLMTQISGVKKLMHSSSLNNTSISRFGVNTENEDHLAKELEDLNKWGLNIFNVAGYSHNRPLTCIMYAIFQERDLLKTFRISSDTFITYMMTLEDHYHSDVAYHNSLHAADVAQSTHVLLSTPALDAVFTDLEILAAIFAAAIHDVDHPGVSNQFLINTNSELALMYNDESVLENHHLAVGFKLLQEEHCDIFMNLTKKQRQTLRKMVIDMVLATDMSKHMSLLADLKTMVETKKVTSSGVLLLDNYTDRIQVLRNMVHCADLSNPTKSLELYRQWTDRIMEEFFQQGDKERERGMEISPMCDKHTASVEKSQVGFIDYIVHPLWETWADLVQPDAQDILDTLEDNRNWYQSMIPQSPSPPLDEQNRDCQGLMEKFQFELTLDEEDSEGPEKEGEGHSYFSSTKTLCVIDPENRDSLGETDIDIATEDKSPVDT

The target of the experiment is recombinant Human Phosphodiesterase B2 (PDE4B2) (Homo sapiens, UniProt Q07343). Description: Human Phosphodiesterase B2 Alpha Screen Assay. The experiment is classed as biochemical. The settings on record: cAMP substrate, Alpha Screen cAMP kit, 60 minutes at room temperature. In outline:
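Recombinant human PDE4B2 preincubated 15 min at RT with compound in 50 mM Tris pH 7.5, 8.3 mM MgCl2, 1.7 mM EGTA, 0.01% Brij35, then reacted with cAMP for 60 min at RT. Stopped with EDTA; AlphaScreen beads with biotinylated cAMP incubated 5 h in the dark before reading. IC50 from curve fitting.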
Regarding `Cc1ccc(O)c(C(=O)N[C@H]2CC[C@@H](n3c(=O)c4cc(F)cnc4n(-c4ccc(F)c(F)c4)c3=O)CC2)c1` [Example 72, N-{cis-4-[1-(3,4-difluorophenyl)-6-fluoro-2,4-dioxo-1,4-dihydropyrido[2,3-d]pyrimidin-3(2H)-yl]cyclohexyl}-2-hydroxy-5-methylbenzamide], the IC50 is 2.3 nM. The value for `COC(=O)c1cccc(-n2c(=O)n([C@H]3CC[C@@H](NC(=O)C4CCN(C)CC4)CC3)c(=O)c3cc(F)cnc32)c1` [Example 73, methyl 3-[6-fluoro-3-(cis-4-{[(1-methylpiperidin-4-yl)carbonyl]amino}cyclohexyl)-2,4-dioxo-3,4-dihydropyrido[2,3-d]pyrimidin-1(2H)-yl]benzoate] was 62.6 nM; that for `COC(=O)c1cccc(-n2c(=O)n([C@H]3CC[C@@H](NC(=O)c4ccc(CN(C)C)o4)CC3)c(=O)c3cc(F)cnc32)c1` [Example 74, methyl 3-[3-[cis-4-({5-[(dimethylamino)methyl]-2-furoyl}amino)cyclohexyl]-6-fluoro-2,4-dioxo-3,4-dihydropyrido[2,3-d]pyrimidin-1(2H)-yl]benzoate] was 5.1 nM. The value for `COC(=O)c1cccc(-n2c(=O)n([C@H]3CC[C@@H](NC(=O)C4CCCCC4)CC3)c(=O)c3cc(F)cnc32)c1` [Example 75, methyl 3-[3-{cis-4-[(cyclohexylcarbonyl)amino]cyclohexyl}-6-fluoro-2,4-dioxo-3,4-dihydropyrido[2,3-d]pyrimidin-1(2H)-yl]benzoate] was 2.6 nM. In the case of `O=C(c1n[nH]c2ccccc12)N1CCC(n2c(=O)c3cc(F)cnc3n(-c3ccc(F)c(F)c3)c2=O)CC1` [Example 76, 1-(3,4-difluorophenyl)-6-fluoro-3-[1-(1H-indazol-3-ylcarbonyl)piperidin-4-yl]pyrido[2,3-d]pyrimidine-2,4(1H,3H)-dione], the IC50 is 9.5 nM. The value for `O=C([C@H](O)c1ccccc1)N1CCC(n2c(=O)c3cc(F)cnc3n(-c3ccc(F)c(F)c3)c2=O)CC1` [Example 77, 1-(3,4-difluorophenyl)-6-fluoro-3-{1-[(2R)-2-hydroxy-2-phenylacetyl]piperidin-4-yl}pyrido[2,3-d]pyrimidine-2,4(1H,3H)-dione] was 147 nM; that for `O=C(c1cc(CO)ccc1O)N1CCC(n2c(=O)c3cc(F)cnc3n(-c3ccc(F)c(F)c3)c2=O)CC1` [Example 78, 1-(3,4-difluorophenyl)-6-fluoro-3-{1-[2-hydroxy-5-(hydroxymethyl)benzoyl]piperidin-4-yl}pyrido[2,3-d]pyrimidine-2,4(1H,3H)-dione] was 293 nM. With `O=C(c1n[nH]c2ccccc12)N1CC[C@@H](n2c(=O)c3cc(F)cnc3n(-c3ccc(F)c(F)c3)c2=O)C1` [Example 79, 1-(3,4-difluorophenyl)-6-fluoro-3-[(3R)-1-(1H-indazol-3-ylcarbonyl)pyrrolidin-3-yl]pyrido[2,3-d]pyrimidine-2,4(1H,3H)-dione], the IC50 worked out at 15.4 nM. Consider `O=C([C@H](O)c1ccccc1)N1CC[C@@H](n2c(=O)c3cc(F)cnc3n(-c3ccc(F)c(F)c3)c2=O)C1` [Example 80, 1-(3,4-difluorophenyl)-6-fluoro-3-{(3R)-1-[(2R)-2-hydroxy-2-phenylacetyl]pyrrolidin-3-yl}pyrido[2,3-d]pyrimidine-2,4(1H,3H)-dione], for which the IC50 was found to be 73.3 nM. In the case of `O=C([C@H](O)C1CCCCC1)N1CC[C@@H](n2c(=O)c3cc(F)cnc3n(-c3ccc(F)c(F)c3)c2=O)C1` [Example 81, 3-{(3R)-1-[(2R)-2-cyclohexyl-2-hydroxyacetyl]pyrrolidin-3-yl}-1-(3,4-difluorophenyl)-6-fluoropyrido[2,3-d]pyrimidine-2,4(1H,3H)-dione] it was 8.1 nM. In the case of `O=C(c1cc(CO)ccc1O)N1CC[C@@H](n2c(=O)c3cc(F)cnc3n(-c3ccc(F)c(F)c3)c2=O)C1` [Example 82, 1-(3,4-difluorophenyl)-6-fluoro-3-{(3R)-1-[2-hydroxy-5-(hydroxymethyl)benzoyl]pyrrolidin-3-yl}pyrido[2,3-d]pyrimidine-2,4(1H,3H)-dione] it was 71.8 nM; in that of `O=C(c1n[nH]c2ccccc12)N1CC[C@H](n2c(=O)c3cc(F)cnc3n(-c3ccc(F)c(F)c3)c2=O)C1` [Example 83, 1-(3,4-difluorophenyl)-6-fluoro-3-[(3S)-1-(1H-indazol-3-ylcarbonyl)pyrrolidin-3-yl]pyrido[2,3-d]pyrimidine-2,4(1H,3H)-dione], 9.2 nM; in that of `O=C([C@H](O)c1ccccc1)N1CC[C@H](n2c(=O)c3cc(F)cnc3n(-c3ccc(F)c(F)c3)c2=O)C1` [Example 84, 1-(3,4-difluorophenyl)-6-fluoro-3-{(3S)-1-[(2R)-2-hydroxy-2-phenylacetyl]pyrrolidin-3-yl}pyrido[2,3-d]pyrimidine-2,4(1H,3H)-dione], 57.3 nM. The value for `O=C(N[C@H]1CC[C@@H](n2c(=O)c3cc(F)cnc3n(-c3ccc(F)c(F)c3)c2=O)CC1)c1ccc2[nH]ccc2c1` [Example 85, N-{cis-4-[1-(3,4-difluorophenyl)-6-fluoro-2,4-dioxo-1,4-dihydropyrido[2,3-d]pyrimidin-3(2H)-yl]cyclohexyl}-1H-indole-5-carboxamide] was 0.996 nM; that for `O=C(N[C@H]1CC[C@@H](n2c(=O)c3cc(F)cnc3n(-c3ccc(F)c(F)c3)c2=O)CC1)c1cccc([N+](=O)[O-])c1` [Example 86, N-{cis-4-[1-(3,4-difluorophenyl)-6-fluoro-2,4-dioxo-1,4-dihydropyrido[2,3-d]pyrimidin-3(2H)-yl]cyclohexyl}-3-nitrobenzamide] was 4.13 nM. For the molecule `O=C(N[C@H]1CC[C@@H](n2c(=O)c3cc(F)cnc3n(-c3ccc(F)c(F)c3)c2=O)CC1)c1cc2ccccc2[nH]1` [Example 87, N-{cis-4-[1-(3,4-difluorophenyl)-6-fluoro-2,4-dioxo-1,4-dihydropyrido[2,3-d]pyrimidin-3(2H)-yl]cyclohexyl}-1H-indole-2-carboxamide], the IC50 was found to be 0.885 nM. In the case of `O=C(N[C@H]1CC[C@@H](n2c(=O)c3cc(F)cnc3n(-c3ccc(F)c(F)c3)c2=O)CC1)c1ccc2[nH]cnc2c1` [Example 88, N-{cis-4-[1-(3,4-difluorophenyl)-6-fluoro-2,4-dioxo-1,4-dihydropyrido[2,3-d]pyrimidin-3(2H)-yl]cyclohexyl}-1H-benzimidazole-5-carboxamide] it was 3.38 nM.

Regarding `N#Cc1ccc(C(=O)N[C@H]2CC[C@@H](n3c(=O)c4cc(F)cnc4n(-c4ccc(F)c(F)c4)c3=O)CC2)cc1` [Example 89, 4-cyano-N-{cis-4-[1-(3,4-difluorophenyl)-6-fluoro-2,4-dioxo-1,4-dihydropyrido[2,3-d]pyrimidin-3(2H)-yl]cyclohexyl}benzamide], the IC50 was 10.8 nM. In the case of `O=C(N[C@H]1CC[C@@H](n2c(=O)c3cc(F)cnc3n(-c3ccc(F)c(F)c3)c2=O)CC1)c1ccc2[nH]nnc2c1` [Example 90, N-{cis-4-[1-(3,4-difluorophenyl)-6-fluoro-2,4-dioxo-1,4-dihydropyrido[2,3-d]pyrimidin-3(2H)-yl]cyclohexyl}-1H-1,2,3-benzotriazole-5-carboxamide] it was 6.11 nM.
